What all share (test): biochemical
What all share (design): DiscoveRx KINOMEscan active site-directed competition binding; percent of control kinase bound to immobilised ligand

Assay [1] addresses T1, ABL1(H396P)-nonphosphorylated (Homo sapiens, UniProt P00519, H396P).
T1 construct: nonphosphorylated

Assay [2] addresses T2, ABL1(Q252H)-nonphosphorylated (Homo sapiens, UniProt P00519, Q252H).
T2 construct: nonphosphorylated

The next assay has as its target T3, EPHA1 (Homo sapiens, UniProt P21709).
T3 sequence (P21709 1-976): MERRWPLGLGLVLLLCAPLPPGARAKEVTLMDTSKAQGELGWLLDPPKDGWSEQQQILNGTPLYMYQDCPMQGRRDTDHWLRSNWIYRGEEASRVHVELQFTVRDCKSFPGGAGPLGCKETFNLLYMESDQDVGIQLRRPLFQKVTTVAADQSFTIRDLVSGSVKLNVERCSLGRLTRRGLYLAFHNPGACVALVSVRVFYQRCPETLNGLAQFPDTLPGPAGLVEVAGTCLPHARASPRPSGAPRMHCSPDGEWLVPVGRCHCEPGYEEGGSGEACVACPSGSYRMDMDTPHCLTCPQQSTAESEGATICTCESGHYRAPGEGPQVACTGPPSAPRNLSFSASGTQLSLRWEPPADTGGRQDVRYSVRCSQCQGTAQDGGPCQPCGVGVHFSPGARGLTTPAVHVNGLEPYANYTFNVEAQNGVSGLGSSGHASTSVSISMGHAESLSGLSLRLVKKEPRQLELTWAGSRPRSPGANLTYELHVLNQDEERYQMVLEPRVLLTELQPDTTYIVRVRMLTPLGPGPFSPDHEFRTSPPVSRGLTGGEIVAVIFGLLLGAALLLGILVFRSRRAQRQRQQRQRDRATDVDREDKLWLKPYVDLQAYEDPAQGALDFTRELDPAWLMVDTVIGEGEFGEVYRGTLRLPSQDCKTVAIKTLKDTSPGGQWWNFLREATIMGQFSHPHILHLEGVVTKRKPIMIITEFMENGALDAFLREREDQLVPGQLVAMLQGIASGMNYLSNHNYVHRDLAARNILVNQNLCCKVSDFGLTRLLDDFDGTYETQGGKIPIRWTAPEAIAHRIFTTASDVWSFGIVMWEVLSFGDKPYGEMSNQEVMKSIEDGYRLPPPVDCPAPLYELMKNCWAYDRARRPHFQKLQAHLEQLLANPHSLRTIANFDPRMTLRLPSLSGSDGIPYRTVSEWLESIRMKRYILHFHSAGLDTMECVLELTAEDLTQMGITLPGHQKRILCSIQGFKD

In the next assay the target is INSRR (Homo sapiens, UniProt P14616).
For a further assay, the target named is T4, NEK3 (Homo sapiens, UniProt P51956).
T4 sequence (P51956 1-506): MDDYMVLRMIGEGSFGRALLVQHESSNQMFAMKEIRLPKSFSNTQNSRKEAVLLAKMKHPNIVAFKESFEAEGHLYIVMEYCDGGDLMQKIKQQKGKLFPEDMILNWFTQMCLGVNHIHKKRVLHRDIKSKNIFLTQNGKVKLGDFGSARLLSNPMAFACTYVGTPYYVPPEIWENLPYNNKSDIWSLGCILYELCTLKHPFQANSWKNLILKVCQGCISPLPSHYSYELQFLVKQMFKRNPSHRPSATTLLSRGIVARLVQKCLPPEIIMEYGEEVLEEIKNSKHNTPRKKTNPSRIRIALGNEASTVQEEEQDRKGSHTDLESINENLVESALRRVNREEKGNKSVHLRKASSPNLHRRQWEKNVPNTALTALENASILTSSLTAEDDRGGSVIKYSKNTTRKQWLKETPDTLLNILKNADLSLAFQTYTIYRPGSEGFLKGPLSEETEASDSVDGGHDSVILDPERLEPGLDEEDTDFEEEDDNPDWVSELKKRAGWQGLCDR

A further assay has as its target T5, PCTK1 (Homo sapiens, UniProt Q00536).
T5 construct: gene CDK16

For the next assay, the target named is T6, PYK2 (Homo sapiens, UniProt Q14289).
T6 construct: gene PTK2B

The target of the next assay is T7, TXK (Homo sapiens, UniProt P42681).
T7 sequence (P42681 1-527): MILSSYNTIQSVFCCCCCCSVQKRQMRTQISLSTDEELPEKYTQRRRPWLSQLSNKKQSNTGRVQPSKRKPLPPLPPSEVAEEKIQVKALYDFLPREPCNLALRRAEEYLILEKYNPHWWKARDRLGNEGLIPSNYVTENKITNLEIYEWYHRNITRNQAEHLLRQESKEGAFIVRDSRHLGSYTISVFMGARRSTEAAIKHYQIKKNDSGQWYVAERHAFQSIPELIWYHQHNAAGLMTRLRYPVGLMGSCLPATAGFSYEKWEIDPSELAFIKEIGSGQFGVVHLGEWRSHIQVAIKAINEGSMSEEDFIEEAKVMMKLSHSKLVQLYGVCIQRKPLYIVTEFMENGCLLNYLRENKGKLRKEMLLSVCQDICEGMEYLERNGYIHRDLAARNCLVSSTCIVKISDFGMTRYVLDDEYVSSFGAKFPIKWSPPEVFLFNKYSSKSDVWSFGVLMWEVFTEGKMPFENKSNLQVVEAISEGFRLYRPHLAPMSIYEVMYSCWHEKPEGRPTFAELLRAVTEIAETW

[3] abbreviates: read-out: Niraparib (MK-4827) / %Ctrl @ 10000nM.
[4] abbreviates: read-out: Olaparib / %Ctrl @ 10000nM.
The mark [5] stands for this setting: read-out: Rucaparib / %Ctrl @ 10000nM, binding competition, % of control.
[6] abbreviates: read-out: Talazoparib (BMN 673) / %Ctrl @ 10000nM.

Where two headings read alike, the source gives them in different places.

The record followed here is publication PMC7026418, “The kinase polypharmacology landscape of clinical PARP inhibitors” (Scientific Reports, 2020).

T5 sequence (Q00536 whole entry): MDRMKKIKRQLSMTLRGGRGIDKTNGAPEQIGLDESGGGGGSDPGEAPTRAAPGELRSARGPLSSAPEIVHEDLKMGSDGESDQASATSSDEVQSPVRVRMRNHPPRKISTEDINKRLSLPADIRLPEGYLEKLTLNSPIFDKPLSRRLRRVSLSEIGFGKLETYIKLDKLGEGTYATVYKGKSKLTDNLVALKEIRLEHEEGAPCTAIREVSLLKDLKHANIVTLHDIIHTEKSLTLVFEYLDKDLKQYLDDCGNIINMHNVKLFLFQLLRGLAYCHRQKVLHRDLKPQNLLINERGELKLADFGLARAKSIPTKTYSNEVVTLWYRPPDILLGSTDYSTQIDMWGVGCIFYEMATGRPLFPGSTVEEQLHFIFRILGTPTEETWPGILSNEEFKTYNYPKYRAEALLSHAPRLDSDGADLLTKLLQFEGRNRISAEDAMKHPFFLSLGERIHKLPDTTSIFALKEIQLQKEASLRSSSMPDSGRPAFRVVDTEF
Chain of INSRR (P14616 whole entry): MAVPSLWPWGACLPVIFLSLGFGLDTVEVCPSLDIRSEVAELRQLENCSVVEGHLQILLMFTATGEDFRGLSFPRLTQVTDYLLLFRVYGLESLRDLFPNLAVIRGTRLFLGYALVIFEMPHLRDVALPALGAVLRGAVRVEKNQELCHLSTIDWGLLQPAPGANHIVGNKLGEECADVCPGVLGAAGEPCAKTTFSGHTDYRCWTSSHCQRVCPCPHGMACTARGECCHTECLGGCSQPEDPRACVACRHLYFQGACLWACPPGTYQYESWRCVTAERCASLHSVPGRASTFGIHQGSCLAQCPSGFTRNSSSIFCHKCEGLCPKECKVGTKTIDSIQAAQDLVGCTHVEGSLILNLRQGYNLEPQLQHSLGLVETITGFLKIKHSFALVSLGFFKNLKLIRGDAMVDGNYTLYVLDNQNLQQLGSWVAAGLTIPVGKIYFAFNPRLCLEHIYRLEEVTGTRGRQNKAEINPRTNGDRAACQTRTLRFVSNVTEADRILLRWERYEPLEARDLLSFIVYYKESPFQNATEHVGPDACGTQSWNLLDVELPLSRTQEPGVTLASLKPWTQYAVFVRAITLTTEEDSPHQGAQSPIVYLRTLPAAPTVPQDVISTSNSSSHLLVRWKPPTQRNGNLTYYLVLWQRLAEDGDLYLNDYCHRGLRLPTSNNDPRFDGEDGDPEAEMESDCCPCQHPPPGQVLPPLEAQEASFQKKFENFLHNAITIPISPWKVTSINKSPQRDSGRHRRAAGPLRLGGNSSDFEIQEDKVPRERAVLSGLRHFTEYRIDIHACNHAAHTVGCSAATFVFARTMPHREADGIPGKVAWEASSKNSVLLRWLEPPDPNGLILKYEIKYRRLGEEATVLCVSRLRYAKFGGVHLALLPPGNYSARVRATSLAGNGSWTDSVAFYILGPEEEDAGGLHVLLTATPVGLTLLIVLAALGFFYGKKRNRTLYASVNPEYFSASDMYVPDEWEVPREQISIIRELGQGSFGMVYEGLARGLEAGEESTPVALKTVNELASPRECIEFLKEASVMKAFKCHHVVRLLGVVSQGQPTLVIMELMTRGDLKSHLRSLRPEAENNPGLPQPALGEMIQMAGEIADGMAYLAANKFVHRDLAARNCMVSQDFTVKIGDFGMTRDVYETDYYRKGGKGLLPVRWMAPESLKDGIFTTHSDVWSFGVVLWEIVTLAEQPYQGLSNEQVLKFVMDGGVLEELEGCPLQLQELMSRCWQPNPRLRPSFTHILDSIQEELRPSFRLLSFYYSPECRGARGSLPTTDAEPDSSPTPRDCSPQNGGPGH
T6 sequence (Q14289 whole entry): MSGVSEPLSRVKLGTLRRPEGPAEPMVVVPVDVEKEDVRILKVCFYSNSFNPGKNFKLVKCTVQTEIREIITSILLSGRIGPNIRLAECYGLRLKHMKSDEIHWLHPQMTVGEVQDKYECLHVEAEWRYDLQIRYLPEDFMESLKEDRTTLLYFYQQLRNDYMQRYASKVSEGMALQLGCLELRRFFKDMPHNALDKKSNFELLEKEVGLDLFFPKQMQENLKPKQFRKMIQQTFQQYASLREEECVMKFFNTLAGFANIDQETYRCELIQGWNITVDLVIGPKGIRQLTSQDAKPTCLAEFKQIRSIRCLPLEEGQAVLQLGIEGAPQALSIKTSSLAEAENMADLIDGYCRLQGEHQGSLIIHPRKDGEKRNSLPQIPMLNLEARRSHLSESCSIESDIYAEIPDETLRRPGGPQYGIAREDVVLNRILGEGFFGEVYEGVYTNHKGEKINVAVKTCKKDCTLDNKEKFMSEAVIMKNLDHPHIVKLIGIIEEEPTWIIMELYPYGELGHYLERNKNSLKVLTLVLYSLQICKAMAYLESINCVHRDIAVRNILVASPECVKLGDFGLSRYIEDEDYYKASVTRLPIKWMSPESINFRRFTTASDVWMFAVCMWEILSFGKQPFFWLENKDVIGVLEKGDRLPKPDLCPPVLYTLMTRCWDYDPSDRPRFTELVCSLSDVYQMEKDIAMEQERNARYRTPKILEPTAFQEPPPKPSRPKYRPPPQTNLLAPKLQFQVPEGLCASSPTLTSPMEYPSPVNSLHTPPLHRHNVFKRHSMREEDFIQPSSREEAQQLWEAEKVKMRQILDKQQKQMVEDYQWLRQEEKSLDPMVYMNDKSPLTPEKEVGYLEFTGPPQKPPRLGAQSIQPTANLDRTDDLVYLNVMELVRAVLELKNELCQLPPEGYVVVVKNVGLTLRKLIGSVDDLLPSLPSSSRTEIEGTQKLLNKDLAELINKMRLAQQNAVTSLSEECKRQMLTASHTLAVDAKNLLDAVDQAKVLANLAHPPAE

`NC(=O)c1cccc2cn(-c3ccc([C@@H]4CCCNC4)cc3)nc12` [Niraparib]: the percent of control binding at 10 µM in assay [1] (setting [3]) was 65%; in assay [2] (setting [3]), 58%; on EPHA1 (setting [3]), 86%; at INSRR (setting [3]), 92%; at NEK3 (setting [3]), 88%; on PCTK1 (setting [3]) it was 47%. Besides, the percent of control binding at 10 µM on PYK2 (setting [3]) and at TXK (setting [3]) was 86% in each case.
As for `O=C(c1cc(Cc2n[nH]c(=O)c3ccccc23)ccc1F)N1CCN(C(=O)C2CC2)CC1` [Olaparib], the percent of control binding at 10 µM amounted to 82% in assay [1] (setting [4]); 98% in assay [2] (setting [4]); 92% on EPHA1 (setting [4]); 100% at INSRR (setting [4]); 81% on NEK3 (setting [4]); 99% at PCTK1 (setting [4]). The values for the percent of control binding at 10 µM on PYK2 (setting [4]) and at TXK (setting [4]) were 99% and 86%, respectively.
As to `CNCc1ccc(-c2[nH]c3cc(F)cc4c3c2CCNC4=O)cc1` [Rucaparib], the percent of control binding at 10 µM in assay [1] (setting [5]) was 68%; in assay [2] (setting [5]), 62%; at EPHA1 (setting [5]), 99%; on INSRR (setting [5]), 95%; at NEK3 (setting [5]), 86%; at PCTK1 (setting [5]), 13%. Besides, the percent of control binding at 10 µM on PYK2 (setting [5]) and on TXK (setting [5]) was 100% in each case.
Regarding `Cn1ncnc1[C@H]1c2n[nH]c(=O)c3cc(F)cc(c23)N[C@@H]1c1ccc(F)cc1` [Talazoparib], the percent of control binding at 10 µM in assay [1] (setting [6]) worked out at 92%; in assay [2] (setting [6]), 73%; on EPHA1 (setting [6]) it was 98%; on INSRR (setting [6]), 100%; on NEK3 (setting [6]), 66%; on PCTK1 (setting [6]), 86%. In addition, the percent of control binding at 10 µM is 97% on PYK2 (setting [6]) and 91% at TXK (setting [6]).
